According to ChEMBL document CHEMBL1152391, “Development of a selective and potent radioactive ligand for histamine H(3) receptors: A compound potentially useful for receptor occupancy studies” (Bioorg Med Chem Lett, 2009):
The source made the active and inactive calls. The rule behind the calls is not given here.

Assays:
Histamine H3 receptor [1] = biological target: T1, Histamine H3 receptor (Mus musculus, UniProt P58406); assay: biochemical
[2] = biological target: Histamine H3 receptor (Mus musculus) (UniProt P58406); assay: Inverse agonist activity at mouse histamine H3 receptor overexpressed in HEK293 cells by [35S]GTPgammaS binding assay relative to basal level; assay type: functional, cell-based; conditions: concentration not given here
Histamine H3 receptor (Mus musculus), sequence (P58406 whole entry): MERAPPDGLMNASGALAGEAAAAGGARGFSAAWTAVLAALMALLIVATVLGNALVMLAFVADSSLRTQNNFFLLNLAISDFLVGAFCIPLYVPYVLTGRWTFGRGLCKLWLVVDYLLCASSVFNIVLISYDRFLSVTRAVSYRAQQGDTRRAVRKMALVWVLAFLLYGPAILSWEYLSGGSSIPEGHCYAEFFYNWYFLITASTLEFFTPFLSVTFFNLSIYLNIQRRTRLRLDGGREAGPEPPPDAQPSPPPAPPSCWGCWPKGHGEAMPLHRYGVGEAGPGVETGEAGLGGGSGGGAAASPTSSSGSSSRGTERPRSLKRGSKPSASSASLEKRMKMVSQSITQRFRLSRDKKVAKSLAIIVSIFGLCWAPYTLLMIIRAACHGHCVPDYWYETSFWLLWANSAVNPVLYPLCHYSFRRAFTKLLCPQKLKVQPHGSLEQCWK

Histamine H3 receptor [3] = biological target: T1, Histamine H3 receptor; assay: Inverse agonist activity at mouse histamine H3 receptor overexpressed in HEK293 cells by [35S]GTPgammaS binding assay; assay type: functional, cell-based
[4] = Lipophilicity, log d at pH 7.4; assay type: physicochemical; conditions: buffer
Histamine H3 receptor [5] = biological target: T1, Histamine H3 receptor; assay: Binding affinity to mouse histamine H3 receptor overexpressed in HEK293 cells; assay type: cell-based
Histamine H3 receptor [6] = biological target: T1, Histamine H3 receptor; assay: Binding affinity to histamine H3 receptor in wild type mouse brain membrane; assay type: cell membranes
Histamine H3 receptor [7] = biological target: Histamine H3 receptor (Rattus norvegicus, UniProt Q9QYN8); assay: Binding affinity to rat histamine H3 receptor by competitive binding assay
Histamine H3 receptor (Rattus norvegicus, UniProt Q9QYN8), sequence (Q9QYN8 whole entry): as the sequence (P58406 whole entry) above, with A15T, T286A, G290A, H387R, V389I counted along it

Brain [8] = assay: Drug level in Sprague-Dawley rat brain at 10 mg/kg, po after 2 hrs; assay type: ADME, organism-based; design: dose 10 mg/kg, route oral; conditions: in vivo
[9] = Plasma concentration in Sprague-Dawley rat at 10 mg/kg, po after 2 hrs; assay type: ADME, organism-based; design: dose 10 mg/kg, route oral
Brain [10] = assay: Ex vivo binding affinity to histamine H3 receptor in wild type mouse coronal brain sections at 3 nM after 30 mins by receptor occupancy assay; assay type: functional, tissue-based; conditions: tested as the 3H-labelled form
Histamine H1 receptor = Histamine H1 receptor (Homo sapiens, UniProt P35367); assay: Inhibition of histamine H1 receptor
Histamine H1 receptor, sequence (P35367 whole entry): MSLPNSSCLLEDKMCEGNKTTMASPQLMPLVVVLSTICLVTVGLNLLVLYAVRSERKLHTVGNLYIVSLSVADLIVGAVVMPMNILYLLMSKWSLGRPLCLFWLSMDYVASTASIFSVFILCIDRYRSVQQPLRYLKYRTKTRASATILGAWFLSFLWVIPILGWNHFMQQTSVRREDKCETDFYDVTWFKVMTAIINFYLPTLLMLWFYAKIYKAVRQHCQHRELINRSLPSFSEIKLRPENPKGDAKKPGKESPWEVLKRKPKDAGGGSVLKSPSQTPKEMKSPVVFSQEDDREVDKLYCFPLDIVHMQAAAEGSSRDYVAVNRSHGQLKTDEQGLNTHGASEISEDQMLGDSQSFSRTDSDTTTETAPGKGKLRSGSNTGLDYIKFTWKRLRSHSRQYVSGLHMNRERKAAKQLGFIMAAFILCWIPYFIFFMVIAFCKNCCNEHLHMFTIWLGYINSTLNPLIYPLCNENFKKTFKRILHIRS

[11] = Drug level in Sprague-Dawley rat cerebrospinal fluid at 10 mg/kg, po after 2 hrs; assay type: ADME, organism-based; design: dose 10 mg/kg, route oral; conditions: read-out: Drug uptake
Histamine H4 receptor = Histamine H4 receptor (Homo sapiens, UniProt Q9H3N8); assay: Inhibition of histamine H4 receptor
Histamine H4 receptor, sequence (Q9H3N8 whole entry): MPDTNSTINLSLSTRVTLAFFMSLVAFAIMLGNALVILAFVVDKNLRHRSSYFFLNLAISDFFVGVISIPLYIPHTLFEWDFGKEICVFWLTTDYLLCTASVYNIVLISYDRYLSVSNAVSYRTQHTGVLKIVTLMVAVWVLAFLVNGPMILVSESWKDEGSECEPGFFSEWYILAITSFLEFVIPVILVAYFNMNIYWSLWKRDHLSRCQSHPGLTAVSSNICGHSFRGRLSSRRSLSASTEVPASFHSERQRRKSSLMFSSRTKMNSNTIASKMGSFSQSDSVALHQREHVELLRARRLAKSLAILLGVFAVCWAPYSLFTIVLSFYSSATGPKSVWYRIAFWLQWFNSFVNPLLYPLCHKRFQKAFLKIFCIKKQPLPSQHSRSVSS

Histamine H2 receptor = Histamine H2 receptor (Homo sapiens, UniProt P25021); assay: Inhibition of histamine H2 receptor
Histamine H2 receptor, sequence (P25021 whole entry): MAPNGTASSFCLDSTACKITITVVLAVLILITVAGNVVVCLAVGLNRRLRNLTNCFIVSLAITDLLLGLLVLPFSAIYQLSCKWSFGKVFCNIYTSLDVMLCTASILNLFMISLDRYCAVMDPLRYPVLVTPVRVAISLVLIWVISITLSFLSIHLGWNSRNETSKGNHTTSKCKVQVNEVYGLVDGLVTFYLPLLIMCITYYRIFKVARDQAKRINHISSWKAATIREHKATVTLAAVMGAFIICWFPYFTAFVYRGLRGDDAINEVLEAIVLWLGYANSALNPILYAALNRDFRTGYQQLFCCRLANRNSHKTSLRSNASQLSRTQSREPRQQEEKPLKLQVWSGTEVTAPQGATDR

T1 sequence (P58406 whole entry): as the sequence (P58406 whole entry) above

| SMILES | Ki (Histamine H3 receptor [1]) | inhibition [2] | EC50 (Histamine H3 receptor [3]) | other results |
| --- | --- | --- | --- | --- |
| N=C(N)SCCc1cnc[nH]1 [IMETIT] | 2 nM | – | – | – |
| CNCCc1c[nH]cn1 | 19 nM | – | – | – |
| NCCc1c[nH]cn1 [HISTAMINE] | 68 nM | – | – | – |
| S=C(NC1CCCCC1)N1CCC(c2cnc[nH]2)CC1 [THIOPERAMIDE] | 4.8 nM | 27% | 11 nM | – |
| [3H]C([3H])([3H])n1c(-c2ccc(OCCCN3CCCC3)cc2)nc2ccccc2c1=O | – | – | – | logD [4]: 1.2; Kd (Histamine H3 receptor [5]): 2.6 nM; Kd (Histamine H3 receptor [6]): 3.1 nM |
| N=C(NCc1ccc(Cl)cc1)SCCCc1c[nH]cn1 | – | 14% | – | – |
| Cn1c(-c2ccc(OCCCN3CCCC3)cc2)nc2ccccc2c1=O | 2.4 nM | 24% | 9.6 nM | Ki (Histamine H3 receptor [7]): 12 nM; Drug uptake (Brain [8]): 2.22 nmol/g; concentration at 2 h [9]: 1360 nM; Activity (Brain [10]): Active; IC50 (Histamine H1 receptor): > 10000 nM; concentration at 2 h [11]: 134 nM; IC50 (Histamine H4 receptor): > 10000 nM; IC50 (Histamine H2 receptor): > 10000 nM |
| NC(=NCc1ccc(Cl)cc1)SCCCc1cnc[nH]1 [CLOBENPROPIT] | – | – | 1.7 nM | – |
